Measured values from PubChem BioAssay (NCI).
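In this assay, cells in 96-well plates receive the compound at five concentrations for 48 hours. Endpoints are linearly interpolated between the surrounding concentrations. GI50 is the concentration that inhibits growth by half. The concentration for full growth arrest is given as TGI.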

Columns and labels:
Assay in all cases: NCI anticancer screen, dose series, 48 h
[1] = tested on: A498 renal
[2] = tested on: ACHN renal
[3] = tested on: HCT-116 colon
[4] = tested on: OVCAR-3 ovarian
[5] = tested on: OVCAR-4 ovarian
[6] = tested on: SF-268 CNS
[7] = tested on: SK-MEL-2 melanoma
[8] = tested on: SNB-75 CNS

SMILES | GI50 [1] | TGI [1] | GI50 [2] | TGI [2] | GI50 [3] | TGI [3] | GI50 [4] | TGI [4] | GI50 [5] | TGI [5] | GI50 [6] | TGI [6] | GI50 [7] | TGI [7] | GI50 [8] | TGI [8]
COC(=O)c1cc(-c2ccccc2)[nH]c1N/N=C/c1c(Cl)cccc1Cl | 0.198 µM | 0.704 µM | 0.858 µM | 26.4 µM | 0.318 µM | 1.71 µM | 0.17 µM | 0.356 µM | 0.729 µM | > 28.6 µM | 0.436 µM | 8.25 µM | 0.615 µM | 17.2 µM | 0.215 µM | 2.43 µM
Cc1ccc(/C=C/c2c(C(=O)/C=C/c3ccccc3)c(C)nc3ccccc23)cc1 | 1.75 µM | 3.23 µM | 1.59 µM | 2.93 µM | 0.762 µM | 2.2 µM | 1.51 µM | 2.88 µM | 2.19 µM | 7.72 µM | 2.06 µM | 5.42 µM |  |  |  | 
Oc1c(C(Nc2ccccc2Br)c2ccccc2)ccc2cccnc12 (centres undefined) | 2.04 µM | 25.6 µM | 2.04 µM | > 100 µM | 3.13 µM | 18 µM | 5.37 µM | 23.9 µM | 1.3 µM | 55 µM | 1.7 µM | 17.3 µM |  |  | 2.82 µM | 48.6 µM
C=C(C)[C@@H]1CCC=C2CC[C@]3(C)[C@H](CC[C@@H]4[C@@]5(C)CCCNC(C)(C)[C@@H]5CC[C@]43C)[C@H]21 | 11.7 µM | 26.9 µM | 1.85 µM | 3.25 µM | 1.79 µM | 3.2 µM | 1.8 µM | 3.29 µM |  |  | 2.77 µM | 8.53 µM | 2.34 µM | 5.5 µM | 1.67 µM | 3.94 µM
COc1ccc2c(c1)[n+](=O)c(C(=O)c1cccs1)c(C(F)(F)F)n2[O-] |  |  | 8.64 µM | > 50 µM | 12.3 µM | > 50 µM | 2.09 µM | 11.3 µM | 16.8 µM | > 50 µM | 3.94 µM | 27.4 µM | 10.8 µM | > 50 µM | 9.11 µM | > 50 µM
CCCCC(SC(=S)N1CCCC1)C(=O)Nc1nc(CC(=O)OCC)cs1 (centres undefined) | 64.6 µM | > 100 µM | 59.3 µM | > 100 µM | 28.9 µM | > 100 µM | 9.52 µM | > 100 µM | 43.4 µM | > 100 µM | 37.5 µM | > 100 µM | 36.1 µM | > 100 µM | > 100 µM | > 100 µM
N#Cc1nc(-c2ccc(F)cc2)oc1S(=O)(=O)N1CCCCC1 | 14.1 µM | 27.4 µM | 1.76 µM | 3.15 µM | 1.79 µM | 3.54 µM | 1.86 µM | 3.48 µM | 2.19 µM | 4.76 µM | 2.23 µM | 6.23 µM | 2.03 µM | 4.92 µM | 11.8 µM | 25 µM
O=[N+]([O-])c1cc[n+]([O-])c2ccccc12 | 0.176 µM | 0.471 µM | 0.142 µM | 0.512 µM | 0.0698 µM | 0.316 µM | 0.197 µM | 0.471 µM | 1.78 µM | 3.17 µM | 0.282 µM | 1.24 µM | 0.169 µM | 0.377 µM | 0.176 µM | 0.465 µM
[2H]C([2H])([2H])NC(=O)c1nnc(NC(=O)C2CC2)cc1Nc1cccc(-c2ncn(C)n2)c1OC | 4.12 µM | > 100 µM | 5.53 µM | > 100 µM | 9.79 µM | > 100 µM | 41.3 µM | > 100 µM | 18.2 µM | > 100 µM | 45.7 µM | > 100 µM | 10.6 µM | 83.8 µM | 15 µM | > 100 µM
CO/N=C(\COc1ccc2c(=O)c3ccccc3oc2c1)c1ccccc1 | 20.3 µM | 47.7 µM | 24 µM | 52.7 µM | 68.6 µM | > 100 µM | 27.4 µM | 79.3 µM | 84.3 µM | > 100 µM | 33.2 µM | > 100 µM |  |  | 68.8 µM | > 100 µM
c1ccc(-c2nn3c(c2-c2ccnc4cc(OCCN5CCOCC5)ccc24)CCC3)nc1 | > 100 µM | > 100 µM | 36.3 µM | > 100 µM | 31 µM | > 100 µM | > 69.9 µM | > 100 µM | > 100 µM | > 100 µM | > 77.1 µM | > 100 µM | > 100 µM | > 100 µM | 59 µM | > 100 µM
OCCCCC#Cc1ccccc1C#Cc1ccc(O)cc1 | 20.7 µM | 38.5 µM | 16.6 µM | 31.2 µM | 16.6 µM | 31.8 µM | 14.8 µM | 30.4 µM | 15.8 µM | 31.9 µM | 16 µM | 41.7 µM | 20.8 µM | 43 µM | 13.6 µM | 29.3 µM
Cc1ccc(/C=C(\C#N)c2cc3ccccc3n2C)cc1 | 0.217 µM | 0.808 µM | 0.783 µM | > 100 µM | 0.361 µM | > 100 µM | 0.361 µM |  |  |  | 8.27 µM | > 100 µM |  |  |  | 
Cc1ccc(S(=O)(=O)Oc2ccc3c4c(c(=O)oc3c2)CCCCCC4)cc1 | 4.43 µM | > 100 µM | > 100 µM | > 100 µM | 8.04 µM | > 100 µM | > 100 µM | > 100 µM | > 100 µM | > 100 µM | > 100 µM | > 100 µM | 75 µM | > 100 µM | > 100 µM | > 100 µM
C#C[C@]1(O)CC[C@H]2[C@@H]3CC=C4c5sc(Nc6cc(F)ccc6F)nc5CC[C@]4(C)[C@H]3CC[C@@]21C | 1.37 µM | 2.76 µM | 1.44 µM | 2.9 µM |  |  | 1.62 µM | 3.16 µM | 3.25 µM | 11.4 µM | 1.53 µM | 3.37 µM | 1.59 µM | 4.14 µM | 0.736 µM | 2.18 µM
